Calls of active or inactive are those of the source. The rule behind the calls is not given here. Where a SMILES comes first, the peptide text is derived from it. [ ]: non-standard residue; d: D form. The star is where a group is joined. Phe(4-SO3H) = N[C@@H](Cc1ccc(S(=O)(=O)O)cc1)C(=O)O; sY = N[C@@H](Cc1ccc(OS(=O)(=O)O)cc1)C(=O)O; Nle = CCCC[C@H](N)C(=O)O; Orn = NCCC[C@H](N)C(=O)O; Cbz = O=C(OCc1ccccc1)*; Boc = CC(C)(C)OC(=O)*
What was measured:
[1] = molecular target: T1, Cholecystokinin receptor type A (Cavia porcellus, UniProt Q63931); experiment: Apparent affinity to inhibit binding of [3H]pCCK-8 to Cholecystokinin type A receptor of guinea pig pancreatic membranes
T1 sequence (Q63931 whole entry): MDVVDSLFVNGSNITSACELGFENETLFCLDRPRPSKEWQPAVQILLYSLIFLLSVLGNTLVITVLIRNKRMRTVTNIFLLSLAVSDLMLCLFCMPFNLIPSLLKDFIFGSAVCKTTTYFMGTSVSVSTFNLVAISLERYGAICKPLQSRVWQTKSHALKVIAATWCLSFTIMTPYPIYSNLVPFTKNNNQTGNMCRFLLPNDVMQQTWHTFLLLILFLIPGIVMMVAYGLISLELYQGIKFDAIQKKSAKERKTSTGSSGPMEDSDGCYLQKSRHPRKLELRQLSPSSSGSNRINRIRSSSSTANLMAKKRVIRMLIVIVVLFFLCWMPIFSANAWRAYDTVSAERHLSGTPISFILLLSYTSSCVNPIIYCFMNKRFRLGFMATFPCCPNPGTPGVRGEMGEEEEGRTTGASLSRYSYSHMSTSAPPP

[2] = Antagonist activity expressed as pA2, evaluated from the potency to stimulate amylase release from guinea pig pancreatic acini; type: functional, Cavia porcellus
[3] = (§1) Antagonist activity expressed as binding constant, evaluated from the potency to stimulate Amylase release from guinea pig pancreatic acini; parameters: species or system Cavia porcellus
Cavia porcellus [4] = species: Cavia porcellus; experiment: Antagonist activity expressed as binding constant, evaluated from the potency to stimulate Amylase release from guinea pig pancreatic acini;Not significant
Cavia porcellus [5] = species: Cavia porcellus; experiment: as §1
[6] = Agonist activity expressed as effective concentration that causes 50% stimulation of amylase release from guinea pig pancreatic acini.; ND means no significant activity at 10e-4 M
[7] = Agonist activity expressed as effective concentration that causes 50% stimulation of amylase release from guinea pig pancreatic acini;Not significant; type: functional, Cavia porcellus
[8] = Antagonist activity expressed as binding constant, evaluated from the potency to stimulate Amylase release from guinea pig pancreatic acini;Not significant at 10e-4 M; conditions: Cavia porcellus
[9] = Agonist activity expressed as effective concentration that causes 50% stimulation of Amylase release from guinea pig pancreatic acini.; ND means no significant activity at 10e-4 M; type: functional, Cavia porcellus
[10] = Antagonist activity expressed as pA2, evaluated from the potency to stimulate Amylase release from guinea pig pancreatic acini; type: functional, Cavia porcellus
[11] = Agonist activity expressed as effective concentration that causes 50% stimulation of amylase release from guinea pig pancreatic acini; type: functional, Cavia porcellus
[12] = Agonist activity expressed as effective concentration that causes 50% stimulation of amylase release from guinea pig pancreatic acini.; ND means no significant activity at 10e-4 M; type: functional, Cavia porcellus

Ki [1] [µM] | pA2 [2] | Kb (Cavia porcellus [5]) [µM] | EC50 [6] | SMILES | further results
5.2 | 4.58 |  |  | CC(C)(C)OC(=O)NCCC[C@H](NC(=O)[C@H](Cc1c[nH]c2ccccc12)NC(=O)OC(C)(C)C)C(=O)N[C@@H](CC(=O)O)C(=O)N[C@@H](Cc1ccccc1)C(N)=O (Boc-W[Orn](Boc)DF-NH2) | EC50 [3]: 13.6 µM; Kb (Cavia porcellus [4]): inactive
14 |  |  |  | CC(C)(C)OC(=O)N[C@@H](Cc1c[nH]c2ccccc12)C(=O)N[C@@H](CCCN)C(=O)N[C@@H](CC(=O)O)C(=O)N[C@@H](Cc1ccccc1)C(N)=O (Boc-W[Orn]DF-NH2) | EC50 [7]: 13.8 µM; Kb [8]: inactive
0.2 | 6.63 |  | Not Active | CC(C)(C)OC(=O)N[C@@H](Cc1c[nH]c2ccccc12)C(=O)N[C@@H](CCCNC(=O)OCc1ccccc1)C(=O)N[C@@H](CC(=O)O)C(N)=O (Boc-Trp-[Orn](Cbz)-Asp-NH2) | Kb (Cavia porcellus [4]): 0.23 µM
0.34 | 6.25 | 0.57 | Not Active | CC(C)(C)OC(=O)N[C@@H](Cc1c[nH]c2ccccc12)C(=O)N[C@@H](CCCNC(=O)OCc1ccccc1)C(=O)N[C@@H](CC(=O)O)C(=O)N[C@@H](Cc1ccccc1)C(N)=O (Boc-W[Orn](Cbz)DF-NH2) | 

Second part, the molecule before the results:

SMILES | Ki [1] [µM] | pA2 [2] | Kb (Cavia porcellus [5]) [µM] | EC50 [6] | further results
CC(C)(C)OC(=O)N[C@@H](Cc1c[nH]c2ccccc12)C(=O)N[C@@H](CCCN)C(=O)N[C@@H](CC(=O)O)C(N)=O (Boc-Trp-[Orn]-Asp-NH2) | 1000 |  |  |  | 
CCCC[C@H](NC(=O)[C@H](Cc1ccc(S(=O)(=O)O)cc1)NC(=O)OC(C)(C)C)C(=O)NCC(=O)N[C@@H](Cc1c[nH]c2ccccc12)C(=O)N[C@@H](CCCNC(=O)OCc1ccccc1)C(=O)N[C@@H](CC(=O)O)C(N)=O (Boc-[Phe(4-SO3H)][Nle]GW[Orn](Cbz)D-NH2) |  |  | 0.22 | Not Active | 
CCCC[C@H](NC(=O)[C@H](Cc1ccc(OS(=O)(=O)O)cc1)NC(=O)OC(C)(C)C)C(=O)NCC(=O)N[C@@H](Cc1c[nH]c2ccccc12)C(=O)N[C@@H](CCCNC(=O)OCc1ccccc1)C(=O)N[C@@H](CC(=O)O)C(=O)N[C@@H](Cc1ccccc1)C(N)=O (stereo in doubt; 1) | 0.31 |  |  |  | EC50 [9]: Not Active; pA2 [10]: 6.32
CCCC[C@H](NC(=O)[C@H](Cc1ccc(OS(=O)(=O)O)cc1)NC(=O)OC(C)(C)C)C(=O)NCC(=O)N[C@@H](Cc1c[nH]c2ccccc12)C(=O)N[C@@H](CCCNC(=O)OCc1ccccc1)C(=O)N[C@@H](CC(=O)O)C(=O)N[C@@H](Cc1ccccc1)C(N)=O (stereo in doubt; 2) | 0.34 |  |  |  | EC50 [11]: 0.022 µM
CCCC[C@H](NC(=O)[C@H](Cc1ccc(S(=O)(=O)O)cc1)NC(=O)OC(C)(C)C)C(=O)NCC(=O)N[C@@H](Cc1c[nH]c2ccccc12)C(=O)N[C@@H](CCCNC(=O)OCc1ccccc1)C(=O)N[C@@H](CC(=O)O)C(=O)N[C@@H](Cc1ccccc1)C(N)=O (Boc-[Phe(4-SO3H)][Nle]GW[Orn](Cbz)DF-NH2) |  |  | 0.49 |  | 
CCCC[C@H](NC(=O)[C@H](Cc1ccc(OS(=O)(=O)O)cc1)NC(=O)OC(C)(C)C)C(=O)NCC(=O)N[C@@H](Cc1c[nH]c2ccccc12)C(=O)N[C@@H](CCCNC(=O)OCc1ccccc1)C(=O)N[C@@H](CC(=O)O)C(N)=O (Boc-[sY][Nle]GW[Orn](Cbz)D-NH2) | 0.23 | 6.64 |  |  | 
CCCC[C@H](NC(=O)[C@H](Cc1ccc(S(=O)(=O)O)cc1)NC(=O)OC(C)(C)C)C(=O)NCC(=O)N[C@@H](Cc1c[nH]c2ccccc12)C(=O)N[C@@H](CCCNC(=O)OC(C)(C)C)C(=O)N[C@@H](CC(=O)O)C(=O)N[C@@H](Cc1ccccc1)C(N)=O (Boc-[Phe(4-SO3H)][Nle]GW[Orn](Boc)DF-NH2) | 0.66 | 5.94 | 1.1 |  | EC50 [12]: Not Active
CC(C)(C)OC(=O)NCCC[C@H](NC(=O)[C@H](Cc1c[nH]c2ccccc12)NC(=O)OC(C)(C)C)C(=O)N[C@@H](CC(=O)O)C(N)=O (Boc-Trp-[Orn](Boc)-Asp-NH2) | 29 | 4.62 |  | Not Active | Kb (Cavia porcellus [4]): 0.23 µM

Source: ChEMBL document CHEMBL1125030, “Boc-Trp-Orn(Z)-Asp-NH2 and derivatives: a new family of CCK antagonists” (J Med Chem, 1990)
